Values of other authors, collected in patent publication US10538548B2, “Material mixture containing rubusoside or alpha glycosylrubusoside, for enhancing sweet taste” (SYMRISE AG, priority 2014, dated 2020).

Conditions: pure rubusoside

SMILES: C=C1C[C@@]23CC[C@H]4[C@@](C)(CCC[C@@]4(C)C(=O)O[C@@H]4O[C@H](CO)[C@@H](O)[C@H](O)[C@H]4O)[C@@H]2CC[C@]1(O[C@@H]1O[C@H](CO)[C@@H](O)[C@H](O)[C@H]1O)C3 [rubusoside, Rubusoside]
- sweetening power relative to sugar: 200 times
